Measured values as given in patent publication US5536853A, “Opiate receptor ligands” (Chiron Corporation, priority 1994, dated 1996).

The molecules below were run against T1, μ-specific opiate receptor (Rattus norvegicus, UniProt P33535) (assay: in vitro solution-phase radioligand competition assay ([3H]-DAMGO, rat forebrain membranes)). Conditions: 1 nM [3H]-DAMGO, pH 7.5, 1 hr room temperature.
T1 construct: Rat forebrains were homogenized and washed; from tissue; host or cells: rat forebrain membranes
T1 sequence (P33535 whole entry): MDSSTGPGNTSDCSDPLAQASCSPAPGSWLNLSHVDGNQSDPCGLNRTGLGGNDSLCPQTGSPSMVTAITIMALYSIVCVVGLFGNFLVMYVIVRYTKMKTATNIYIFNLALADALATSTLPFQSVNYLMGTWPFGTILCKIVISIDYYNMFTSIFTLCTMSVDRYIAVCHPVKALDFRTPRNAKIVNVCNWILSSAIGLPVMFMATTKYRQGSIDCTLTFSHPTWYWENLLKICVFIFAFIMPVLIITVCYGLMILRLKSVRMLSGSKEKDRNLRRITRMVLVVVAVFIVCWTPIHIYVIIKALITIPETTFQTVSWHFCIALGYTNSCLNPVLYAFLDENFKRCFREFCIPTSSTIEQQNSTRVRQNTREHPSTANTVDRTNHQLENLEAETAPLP
Assay type: binding
Method: Compounds were screened in vitro using the following assay:
High-affinity ligands for the μ-specific opiate receptor were identified from a diverse peptoid library by testing the pools of compounds in solution-phase radioligand competition assays, and tracing the binding activity to individual compounds by iterative resynthesis and screening of smaller sub-pools.
Rat forebrains were homogenized and washed in 50 mM Tris, pH 7.5 containing 20 mM NaCl, 5 mM EGTA, 2 mM MgCl2, 21 μg/mL aprotinin, 0.5 mg/L leupeptin, 0.7 mg/L pepstatin, 0.2 Mm PMSF. 50 μL of membrane (10 mg/mL protein) were dispensed into 1 mL of 50 mM Tris, pH 7.5, 1 nM [^3 H]-DAMGO and the peptoid mixture. All assays were performed at 100 nM per peptoid.
Nonspecific binding was determined as [^3 H]-DAMGO bound in the presence of 1 μM naloxone. Incubation was for 1 hr at room temperature. Unbound radioactivity was removed by rinsing the membranes on Whatman GF/B glass fiber filters. Each filter was washed 3 times with 3 mL of 50 mM Tris, pH 7.5, 4° C. Filters were soaked overnight in 5 mL of Beckman ReadySafe scintillation cocktail and then counted for one minute in a Wallac 1409 liquid scintillation counter. Assays were performed in duplicate.

Row | SMILES | Ki
1 | NC(=O)CN(CCc1ccc(O)cc1)C(=O)CN(Cc1ccc2c(c1)OCO2)C(=O)CNCC(c1ccccc1)c1ccccc1 [CHIR-4531, Nbhm-Nmdb-Nhtyr] | 7 nM
2 | CCCCCN(CC(=O)N(CCc1ccc(O)cc1)CC(N)=O)C(=O)CNCC(c1ccccc1)c1ccccc1 [CHIR-4534, Nbhm-Npen-Nhtyr] | 30 nM
3 | COc1ccc(CN(CC(=O)N(CCc2ccc(O)cc2)CC(N)=O)C(=O)CNCC(c2ccccc2)c2ccccc2)cc1OC [CHIR-4537, Nbhm-Nddb-Nhtyr] | 45 nM

Same assay, conditions: at 100 nM, 1 nM [3H]-DAMGO, pH 7.5, 1 hr room temperature

Row | SMILES | inhibition at 0.1 µM
4 | NC(=O)CN(CCc1ccc(O)cc1)C(=O)CN(Cc1ccc2c(c1)OCO2)C(=O)CNCCC(c1ccccc1)c1ccccc1 [CHIR 4622, Nbhe-Nmdb-Nhtyr] | 78%
5 | COc1cc(CN(CC(=O)N(CCc2ccc(O)cc2)CC(N)=O)C(=O)CNCC(c2ccccc2)c2ccccc2)cc(OC)c1OC [CHIR 4626, Nbhm-Ntrnb-Nhtyr] | 86%
6 | NC(=O)CN(CCc1ccc(O)cc1)C(=O)CN(Cc1ccccc1)C(=O)CNCC(c1ccccc1)c1ccccc1 [CHIR 4627, Nbhm-Nphe-Nhtyr] | 90%
7 | NC(=O)CN(CCc1ccccc1)C(=O)CN(Cc1ccccc1)C(=O)CNCC(c1ccccc1)c1ccccc1 [CHIR 4628, Nbhm-Nphe-Nhphe] | 77%
8 | NC(=O)CN(CCc1ccc(O)cc1)C(=O)CN(Cc1ccc2c(c1)OCO2)C(=O)C=CCNCC(c1ccccc1)c1ccccc1 [CHIR 5045, Nvbhm-Nmdb-Nhtyr] | 58%
9 | CC(NCC(c1ccccc1)c1ccccc1)C(=O)N(CC(=O)N(CCc1ccc(O)cc1)CC(N)=O)Cc1ccc2c(c1)OCO2 (stereo not shown) [CHIR 5052, Nbha-Nmdb-Nhtyr] | 73%
10 | NC(=O)CN(CCc1ccc(O)cc1)C(=O)CN(Cc1ccc2c(c1)OCO2)C(=O)CNCC=C(c1ccccc1)c1ccccc1 [CHIR 5062, Nbvp-Nmdb-Nhtyr] | 65%
